From paper PMC3630508 (Molecular immunology, 2012)

Tests used:
complement activation = format: in vivo; settings: 20 mg E23A intra-peritoneal, male Wistar rats, one hour
[1] = aqueous solubility; qualitative, data not shown

## CC[C@H](C)[C@H](NC(=O)[C@H](C)NC(=O)[C@@H]1CCCN1)C(=O)N[C@@H](CS)C(=O)N[C@@H](CCC(N)=O)C(=O)N[C@@H](CCCNC(=N)N)C(=O)N[C@@H](C)C(=O)N[C@H](C(=O)N[C@@H](C)C(=O)N[C@H](C(=O)N[C@@H](CC(C)C)C(=O)NCC(=O)N[C@H](C(=O)N[C@H](C(=O)NCC(=O)N[C@@H](CO)C(=O)N[C@@H](CC(N)=O)C(=O)N[C@H](C(=O)N[C@@H](CO)C(=O)NCC(=O)N[C@H](C(=O)N[C@H](C(=O)N[C@@H](CCC(=O)O)C(=O)N[C@H](C(=O)N[C@@H](C)C(=O)N[C@@H](C)C(=O)N[C@@H](CS)C(=O)N[C@H](C(=O)N[C@@H](CC(C)C)C(=O)N[C@@H](CC(C)C)C(=O)O)[C@@H](C)CC)[C@@H](C)CC)[C@@H](C)O)[C@@H](C)O)[C@@H](C)O)C(C)C)[C@@H](C)O)[C@@H](C)O)[C@@H](C)O [E23A]
Complement activation
  adverse effects / overt toxicity upon necropsy: no overt adverse effects
[1]
  solubility: relative insolubility

## CC[C@H](C)[C@H](N)C(=O)N[C@@H](C)C(=O)N[C@@H](CC(C)C)C(=O)N[C@H](C(=O)N[C@@H](CC(C)C)C(=O)N[C@@H](CCC(=O)O)C(=O)N1CCC[C@H]1C(=O)N[C@H](C(=O)N[C@@H](CS)C(=O)N[C@@H](CS)C(=O)N[C@@H](CCC(N)=O)C(=O)N[C@@H](CCC(=O)O)C(=O)N[C@@H](CCCNC(=N)N)C(=O)N[C@@H](C)C(=O)N[C@@H](C)C(=O)O)[C@@H](C)CC)[C@@H](C)CC [PA]
[1]
  solubility: aqueous solubility of the compound was significantly improved
